# From patent US11787840B2, “Compositions and methods for treating and preventing autoimmune induced cardiac long QT syndrome” (The United States Government As Represented By The …, priority 2019, dated 2023)
# Entries after “also recorded” stand apart in the source; their conditions may differ.
# Tested on: Ro52-immunized guinea-pigs (anti-Ro Abs associated QTc prolongation)
# Test: QTc (ECG) in Ro52-immunized guinea pigs after linear peptide 4
# Assay type: in vivo, guinea pig
# Details: linear peptide 4, 2 mg/kg, one-time injection at day 15; ECG through day 30; versus immunized control without peptide
# Text: Immunization and peptide administration protocol. The overall experimental protocol for immunization and administration of the peptide used to generate data in FIG. 2 is shown in FIG. 6. Specifically, two group of guinea pigs (control and experimental) were first immunized subcutaneously initially on day 0 (Do) with Ro52 antigen followed by a booster at days 10 and 15, and anti-Ro antibodies levels were monitored by ELISA. The control group was not administered any peptide treatment except the immunization. The experimental group was injected with the linear peptide #4 (2 mg/kg) at day 15.
sequence,measurement,value
GNMEQPHMDSRIGWLHNLGDQ [Peptide 4],effect on QTc interval,rescued and normalized the QTc interval; also recorded: drastic shortening of QTc
